# Results published in patent publication US7994140B2, “Classes of compounds that interact with GPCRs” (Alchemia Limited, priority 2002, dated 2011).
# Columns and labels:
# SST5 = biological target: T1, SST5 (Homo sapiens, UniProt P35346); assay: GPCR radioligand binding (RLB) assay, somatostatin SST5, [125I]SST-14; conditions: 10 micromolar compound; for SST5 inhibition at 10 micromolar: recombinant human receptor membranes (HEK 293)
# T1 construct: purchased Perkin Elmer BioSignal; host or cells: HEK 293
# T1 sequence (P35346 whole entry): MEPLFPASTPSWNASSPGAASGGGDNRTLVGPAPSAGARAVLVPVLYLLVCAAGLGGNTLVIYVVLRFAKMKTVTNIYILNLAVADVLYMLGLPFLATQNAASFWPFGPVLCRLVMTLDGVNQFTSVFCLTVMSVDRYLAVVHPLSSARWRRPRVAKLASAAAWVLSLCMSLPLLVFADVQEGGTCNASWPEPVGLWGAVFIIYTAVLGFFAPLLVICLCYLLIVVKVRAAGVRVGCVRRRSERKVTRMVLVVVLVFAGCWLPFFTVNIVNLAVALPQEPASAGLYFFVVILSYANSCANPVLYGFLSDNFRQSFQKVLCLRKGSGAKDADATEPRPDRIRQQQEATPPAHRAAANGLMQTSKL
# Description: Recombinant human receptors expressed in HEK 293 cells were used for all experiments. Receptor membrane preparations were purchased from Perkin Elmer BioSignal. The labelled ligand used in somatostatin GPCR RLB assays was [^125I]SST-14 and in melanocortin assays was [^125I]NDP-αMSH. All assays were done in a 96-well plate format using either glass fiber filter mats or filter plates. All reagents purchased were of the highest quality.
# Specific assay buffer, incubation and washing conditions were optimized for each receptor however they all followed the same general format. The procedures for both filter mat and filter plate formats are based on the receptor manufacturers recommendations or those described extensively in the literature. The procedures are briefly outlined below.
# In assays where filter mats are used we incubate receptor membranes, assay buffer and [^125I] labelled ligand in 96 well microplates. Add compounds to incubation mixture and continue incubation for optimized period. Presoak Filter mat GF/B in 0.5% PEI for ˜2 hr at 4° C. On completion of assay mixture incubation add additional 100 μL/well of assay buffer immediately prior to filtration. Filter the assay mixture onto the GF/B filter mat using a cell harvester. Dry the filter mats prior to sealing them into a scintillation counting bag with scintillant. Radioactivity in each well is detected by liquid scintillation counting.
# In assays where filter plates are used Multiscreen glass fiber filter plates (Millipore, Cat No MAFCNOB10) are precoated with 0.5% PEI for ˜2 hr at 4° C. All wells are then washed with 200 µl/well assay buffer and filtered using the Multiscreen Separation System. Subsequently receptor membranes, assay buffer and labelled ligands are added to the wells and equilibrated. Compounds for testing are then added to the mixture and incubation is continued for an optimized time. Plates are then put into the Multiscreen Separation System and the assay mixture is filtered through the plate under vacuum. Each well is then washed several times with assay buffer. Plates are then dried prior to putting sealing tape onto the bottom of the plate. Scintillant is added to each well and radioactivity measured by liquid scintillation counting.
# Raw data was analysed according to standard methods using either GraphPad Prism software or IDDBS ActivityBase software.
# MC4 = biological target: T2, MC4 (Homo sapiens, UniProt P32245); assay: GPCR radioligand binding (RLB) assay, melanocortin MC4, [125I]NDP-αMSH; conditions: 10 micromolar compound; recombinant human receptor membranes (HEK 293)
# T2 construct: purchased Perkin Elmer BioSignal; host or cells: HEK 293
# T2 sequence (P32245 whole entry): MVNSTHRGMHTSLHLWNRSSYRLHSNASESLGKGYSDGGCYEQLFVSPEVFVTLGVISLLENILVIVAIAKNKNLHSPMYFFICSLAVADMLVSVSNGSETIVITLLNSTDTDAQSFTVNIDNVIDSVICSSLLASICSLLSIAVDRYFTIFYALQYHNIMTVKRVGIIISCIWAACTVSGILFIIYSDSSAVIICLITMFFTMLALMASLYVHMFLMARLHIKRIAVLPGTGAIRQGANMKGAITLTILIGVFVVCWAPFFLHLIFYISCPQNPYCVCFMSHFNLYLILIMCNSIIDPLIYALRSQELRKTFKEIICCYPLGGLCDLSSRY
# Outline: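 Membranes from HEK 293 cells expressing the recombinant human receptor were equilibrated with [125I]SST-14 (SST5) or [125I]NDP-αMSH (MC4), then compound added for an optimized incubation. Bound ligand separated by filtration on PEI-coated glass fiber and counted by liquid scintillation.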
smiles,measurement,setting,value
COC[C@H]1OC(OCc2ccc(-c3ccccc3)cc2)[C@H](NC(=O)CNC(=N)N)[C@@H](OCc2ccc(-c3ccccc3)cc2)[C@@H]1O (some centres unmarked) [Compound 1],SST5 inhibition at 10 micromolar,SST5,+ (Indicates inhibition greater than . . . 50%)
same,MC4 inhibition at 10 micromolar,MC4,+ (Indicates inhibition greater than . . . 50%)
COC[C@H]1OC(OCc2ccccc2)[C@H](NC(=O)CCNC(=N)N)[C@@H](OCc2ccc(-c3ccccc3)cc2)[C@@H]1O (some centres unmarked) [Compound 6],SST5 inhibition at 10 micromolar,SST5,+ (Indicates inhibition greater than . . . 50%)
same,MC4 inhibition at 10 micromolar,MC4,+ (Indicates inhibition greater than . . . 50%)
COC[C@H]1OC(OCc2ccc(Cl)cc2)[C@H](NC(=O)CCNC(=N)N)[C@@H](OCc2ccc(-c3ccccc3)cc2)[C@@H]1O (some centres unmarked) [Compound 13],SST5 inhibition at 10 micromolar,SST5,+ (Indicates inhibition greater than . . . 50%)
same,MC4 inhibition at 10 micromolar,MC4,+ (Indicates inhibition greater than . . . 50%)
COC[C@H]1OC(OCc2ccc(Cl)cc2)[C@H](NC(=O)CCNC(=N)N)[C@@H](OCc2ccc3ccccc3c2)[C@@H]1O (some centres unmarked) [Compound 14],SST5 inhibition at 10 micromolar,SST5,+ (Indicates inhibition greater than . . . 50%)
same,MC4 inhibition at 10 micromolar,MC4,+ (Indicates inhibition greater than . . . 50%)
COC[C@H]1OC(OCc2ccc(Cl)cc2)[C@H](NC(=O)CCCNC(=N)N)[C@@H](OCc2ccc3ccccc3c2)[C@@H]1O (some centres unmarked) [Compound 15],SST5 inhibition at 10 micromolar,SST5,+ (Indicates inhibition greater than . . . 50%)
same,MC4 inhibition at 10 micromolar,MC4,+ (Indicates inhibition greater than . . . 50%)
COC[C@H]1OC(OCc2ccc(-c3ccccc3)cc2)[C@H](NC(=O)CCCN)[C@@H](OCc2ccc(-c3ccccc3)cc2)[C@@H]1O (some centres unmarked) [Compound 28],SST5 inhibition at 10 micromolar,SST5,+ (Indicates inhibition greater than . . . 50%)
same,MC4 inhibition at 10 micromolar,MC4,+ (Indicates inhibition greater than . . . 50%)
COC[C@H]1OC(OCc2ccc(-c3ccccc3)cc2)[C@H](NC(=O)CCCNC(=N)N)[C@@H](OCc2ccc(-c3ccccc3)cc2)[C@@H]1O (some centres unmarked) [Compound 29],SST5 inhibition at 10 micromolar,SST5,+ (Indicates inhibition greater than . . . 50%)
same,MC4 inhibition at 10 micromolar,MC4,+ (Indicates inhibition greater than . . . 50%)
COC[C@H]1OC(OCc2ccc(-c3ccccc3)cc2)[C@H](NC(=O)CCCNC(=N)N)[C@@H](OCc2ccc3ccccc3c2)[C@@H]1O (some centres unmarked) [Compound 30],SST5 inhibition at 10 micromolar,SST5,+ (Indicates inhibition greater than . . . 50%)
same,MC4 inhibition at 10 micromolar,MC4,+ (Indicates inhibition greater than . . . 50%)
COC[C@H]1OC(OCc2ccc(-c3ccccc3)cc2)[C@H](NC(=O)CCNC(=N)N)[C@@H](OCc2ccc(Cl)cc2)[C@@H]1O (some centres unmarked) [Compound 32],SST5 inhibition at 10 micromolar,SST5,+ (Indicates inhibition greater than . . . 50%)
same,MC4 inhibition at 10 micromolar,MC4,+ (Indicates inhibition greater than . . . 50%)
COC[C@H]1OC(OCc2ccc(-c3ccccc3)cc2)[C@H](NC(=O)CCCN)[C@@H](OCc2ccc(Cl)cc2)[C@@H]1O (some centres unmarked) [Compound 33],SST5 inhibition at 10 micromolar,SST5,+ (Indicates inhibition greater than . . . 50%)
same,MC4 inhibition at 10 micromolar,MC4,+ (Indicates inhibition greater than . . . 50%)
COC[C@H]1OC(OCc2ccc(-c3ccccc3)cc2)[C@H](NC(=O)CCCNC(=N)N)[C@@H](OCc2ccc(Cl)cc2)[C@@H]1O (some centres unmarked) [Compound 34],SST5 inhibition at 10 micromolar,SST5,+ (Indicates inhibition greater than . . . 50%)
same,MC4 inhibition at 10 micromolar,MC4,+ (Indicates inhibition greater than . . . 50%)
COC[C@H]1OC(OCc2ccc3ccccc3c2)[C@H](NC(=O)CNC(=N)N)[C@@H](OCc2ccc(-c3ccccc3)cc2)[C@@H]1O (some centres unmarked) [Compound 35],SST5 inhibition at 10 micromolar,SST5,+ (Indicates inhibition greater than . . . 50%)
same,MC4 inhibition at 10 micromolar,MC4,+ (Indicates inhibition greater than . . . 50%)
COC[C@H]1OC(OCc2ccc3ccccc3c2)[C@H](NC(=O)CCNC(=N)N)[C@@H](OCc2ccc(-c3ccccc3)cc2)[C@@H]1O (some centres unmarked) [Compound 36],SST5 inhibition at 10 micromolar,SST5,+ (Indicates inhibition greater than . . . 50%)
same,MC4 inhibition at 10 micromolar,MC4,+ (Indicates inhibition greater than . . . 50%)
COC[C@H]1OC(OCc2ccc3ccccc3c2)[C@H](NC(=O)CCCN)[C@@H](OCc2ccc(-c3ccccc3)cc2)[C@@H]1O (some centres unmarked) [Compound 37],SST5 inhibition at 10 micromolar,SST5,+ (Indicates inhibition greater than . . . 50%)
same,MC4 inhibition at 10 micromolar,MC4,+ (Indicates inhibition greater than . . . 50%)
COC[C@H]1OC(OCc2ccc3ccccc3c2)[C@H](NC(=O)CCNC(=N)N)[C@@H](OCc2ccc3ccccc3c2)[C@@H]1O (some centres unmarked) [Compound 38],SST5 inhibition at 10 micromolar,SST5,+ (Indicates inhibition greater than . . . 50%)
same,MC4 inhibition at 10 micromolar,MC4,+ (Indicates inhibition greater than . . . 50%)
COC[C@H]1OC(OCc2ccc3ccccc3c2)[C@H](NC(=O)CCCN)[C@@H](OCc2ccc3ccccc3c2)[C@@H]1O (some centres unmarked) [Compound 39],SST5 inhibition at 10 micromolar,SST5,+ (Indicates inhibition greater than . . . 50%)
same,MC4 inhibition at 10 micromolar,MC4,+ (Indicates inhibition greater than . . . 50%)
COC[C@H]1OC(OCc2ccc3ccccc3c2)[C@H](NC(=O)CCCNC(=N)N)[C@@H](OCc2ccc3ccccc3c2)[C@@H]1O (some centres unmarked) [Compound 40],SST5 inhibition at 10 micromolar,SST5,+ (Indicates inhibition greater than . . . 50%)
same,MC4 inhibition at 10 micromolar,MC4,+ (Indicates inhibition greater than . . . 50%)
COC[C@H]1OC(OCc2ccc3ccccc3c2)[C@H](NC(=O)CCCNC(=N)N)[C@@H](OCc2ccc(Cl)cc2)[C@@H]1O (some centres unmarked) [Compound 43],SST5 inhibition at 10 micromolar,SST5,+ (Indicates inhibition greater than . . . 50%)
same,MC4 inhibition at 10 micromolar,MC4,+ (Indicates inhibition greater than . . . 50%)
COC[C@H]1OC(OCc2ccc(Cl)cc2)[C@H](NC(=O)CCCNC(=N)N)[C@@H](OCc2ccc(-c3ccccc3)cc2)[C@@H]1O (some centres unmarked) [Compound 45],SST5 inhibition at 10 micromolar,SST5,+ (Indicates inhibition greater than . . . 50%)
same,MC4 inhibition at 10 micromolar,MC4,+ (Indicates inhibition greater than . . . 50%)
COC[C@H]1OC(OCc2ccc(Cl)cc2)[C@H](NC(=O)CCCN)[C@@H](OCc2ccc3ccccc3c2)[C@@H]1O (some centres unmarked) [Compound 46],SST5 inhibition at 10 micromolar,SST5,+ (Indicates inhibition greater than . . . 50%)
same,MC4 inhibition at 10 micromolar,MC4,+ (Indicates inhibition greater than . . . 50%)
COC[C@H]1OC(OCCc2ccccc2)[C@H](NC(=O)CCCNC(=N)N)[C@@H](OCc2ccc(-c3ccccc3)cc2)[C@@H]1O (some centres unmarked) [Compound 49],SST5 inhibition at 10 micromolar,SST5,+ (Indicates inhibition greater than . . . 50%)
same,MC4 inhibition at 10 micromolar,MC4,+ (Indicates inhibition greater than . . . 50%)
COC[C@H]1OC(OCc2ccc(-c3ccccc3)cc2)[C@H](NC(=O)CCCN)[C@@H](OCc2ccc(-c3ccccc3)cc2)[C@@H]1O (some centres unmarked) [Compound 53],SST5 inhibition at 10 micromolar,SST5,+ (Indicates inhibition greater than . . . 50%)
same,MC4 inhibition at 10 micromolar,MC4,+ (Indicates inhibition greater than . . . 50%)
CO[C@H]1[C@H](O)[C@@H](COCc2ccc(-c3ccccc3)cc2)OC(OCc2ccc(-c3ccccc3)cc2)[C@@H]1NC(=O)CNC(=N)N (some centres unmarked) [Compound 56],SST5 inhibition at 10 micromolar,SST5,+ (Indicates inhibition greater than . . . 50%)
same,MC4 inhibition at 10 micromolar,MC4,+ (Indicates inhibition greater than . . . 50%)
CO[C@H]1[C@H](O)[C@@H](COCc2ccc(-c3ccccc3)cc2)OC(OCc2ccc(-c3ccccc3)cc2)[C@@H]1NC(=O)CCNC(=N)N (some centres unmarked) [Compound 57],SST5 inhibition at 10 micromolar,SST5,+ (Indicates inhibition greater than . . . 50%)
same,MC4 inhibition at 10 micromolar,MC4,+ (Indicates inhibition greater than . . . 50%)
COC1C(O)C(COCc2ccc3ccccc3c2)OC(OCc2ccc(-c3ccccc3)cc2)C1NC(=O)CCCN (centres unmarked) [Compound 61],SST5 inhibition at 10 micromolar,SST5,+ (Indicates inhibition greater than . . . 50%)
same,MC4 inhibition at 10 micromolar,MC4,+ (Indicates inhibition greater than . . . 50%)
COC1C(O)C(COCc2ccc(-c3ccccc3)cc2)OC(OCc2ccc3ccccc3c2)C1NC(=O)CCCN (centres unmarked) [Compound 69],SST5 inhibition at 10 micromolar,SST5,+ (Indicates inhibition greater than . . . 50%)
same,MC4 inhibition at 10 micromolar,MC4,+ (Indicates inhibition greater than . . . 50%)
CSC1O[C@H](COCc2ccc(Cl)cc2)[C@@H](O)[C@H](OCc2cccc(N)c2)[C@H]1NC(=O)Cc1ccccc1 (some centres unmarked) [Compound 322],SST5 inhibition at 10 micromolar,SST5,+ (Indicates inhibition greater than . . . 50%)
CSC1OC(COCc2cccc(N)c2)C(O)C(OCc2ccccc2)C1NC(=O)c1ccccc1 (centres unmarked) [Compound 326],SST5 inhibition at 10 micromolar,SST5,+ (Indicates inhibition greater than . . . 50%)
CSC1OC(COCc2cccc(N)c2)C(O)C(OCc2ccccc2)C1NC(=O)Cc1c[nH]c2ccccc12 (centres unmarked) [Compound 329],SST5 inhibition at 10 micromolar,SST5,+ (Indicates inhibition greater than . . . 50%)
CSC1O[C@H](COCc2cccc(N)c2)[C@@H](O)[C@H](OCc2ccccc2)[C@H]1NC(=O)CCC1CNc2ccccc21 (some centres unmarked) [Compound 337],SSTS inhibition at 10 micromolar,SST5; Example Library 8,+ (Indicates inhibition greater than . . . 50%)
